Key:
solubility in solvents = type: physicochemical
HIV antigen = assay: expression of HIV antigen in infected MT-4 cells by immunofluorescence; type: cell-based; conditions: HIV-infected MT-4 cells; concentration higher than 50 μg/ml
Description: Expression of HIV antigen was examined by immunofluorescence. When MT-4 cells were infected with HIV, viral antigen positive cells increased with incubation time and all the cells became positive on day 6 after infection.

uninfected CEM cells = conditions: human, 7200 min
Description: The cells and the virus were grown in LAV/CEM medium. The medium consists of RPMI 1640, supplemented with 1% L-glutamine, 100 U/ml of Penicillin, 100 μg/ml Streptomycin, 2 μg/ml Polybrene and 10% heat-inactivated fetal bovine serum (HyClone Labs).
The toxicities of the drugs were tested against uninfected CEM cells. The CEM cells were plated as described above, and culture for five days in the presence or absence of drugs. On day five 1 μCi/well of ^3 H-thymidine was added, and cells were harvested 3 hours later. The results are expressed as toxic dose 50 (TD50) and represent the amount of drug necessary to reduce the cell proliferation by 50% as measured through thymidine incorporation.

CEM-SS cells = assay: cellular toxicity in CEM-SS cells, XTT assay; type: cell-based; conditions: human, 144 h
Source text: CEM-SS cells were obtained from Owen Weislow at the National Cancer Institute.

[1] = system: reverse transcriptase (RTase) derived from avian myeloblastosis virus (AMV); type: biochemical; conditions: concentrations higher than 3 μg/ml; 1 unit of AMV RTase
[2] = system: human immunodeficiency virus (HIV) LAV/BRU; conditions: CEM-F cells; reduces viral replication by 50%
Description: AZT was included as a reference compound. The methodology used in this assay is described below:
The cells and the virus were grown in LAV/CEM medium. The medium consists of RPMI 1640, supplemented with 1% L-glutamine, 100 U/ml of Penicillin, 100 μg/ml Streptomycin, 2 μg/ml Polybrene and 10% heat-inactivated fetal bovine serum (HyClone Labs). […] The LAV/BRU of human immunodeficiency virus (HIV) was obtained from Dr. L. Montagnier, Institute Pasteur, Paris, France. The virus was adapted to CEM cells, and infectious virus stocks were stored as cell-free supernatant fluids in 1 ml aliquots in liquid nitrogen. The titer of the stock was determined by an end point titration method using CEM cells in 96-well microtiter plates. The titration was done with ten replicates for each point, and the 50% tissue culture infective dose (TCID50) was calculated using the method of Reed and Muench (Amer. J. Hygiene, 27/3 (1938) 493-497).
25 The CEM cells (1.5×10^5 cells/ml) were placed in 96-well plates and incubated with virus for 45 minutes. After 45 minutes each compound was added in quadruplicate. […] The OD readings (absorbance at 450/630 nm) fall into three categories: Experimentals=values from wells containing cells, viral inoculum and drug; Controls=values from wells with cells and virus (100%); and Background=values from wells with viral inoculum alone. […]

| SMILES | solubility in dimethylformamide and dimethyl sulfoxide (solubility in solvents) | HIV antigen positive cells (HIV antigen) | TD50, thymidine incorporation (uninfected CEM cells) [µg] | TD50, XTT assay (CEM-SS cells) [µg/mL] | inhibition of AMV RTase activity [1] | ED50, p24gag antigen capture assay [2] [µg] |
| --- | --- | --- | --- | --- | --- | --- |
| C/C1=C\C=C\C2(C)C=C(CO[C@H]3O[C@H](CO)[C@H](O)[C@H](O)[C@H]3O)C(C)CC23OC(O)C(C3=O)C(O)/C=C/C2(C)C=C(C=O)C(C)CC23OC(O)C(C3=O)C(O)/C(C)=C/C=C/C2C=C(CO[C@H]3O[C@H](CO)[C@H](O)[C@H](O)[C@H]3O)C(C)CC23OC(O)C(C3=O)C(O)/C=C/C2(C)C=C(C=O)C(C)CC23OC(O)C(C3=O)C1O (some centres unmarked) | soluble | less than 1% | > 100 | 300 | more than 95% | 3.2 |
| Cc1cn([C@H]2C[C@H](N=[N+]=[N-])[C@@H](CO)O2)c(=O)[nH]c1=O [AZT, reference compound] | – | – | 4.2 | – | – | – |
| C/C1=C\C=C\C2C=C(CO[C@H]3O[C@H](CO)[C@H](O)[C@H](O)[C@H]3O)C(C)CC23OC(O)C(C3=O)C(O)/C=C/C2(C)C=C(CO)C(C)CC23OC(O)C(C3=O)C(O)/C(C)=C/C=C/C2(C)C=C(CO[C@H]3O[C@H](CO)[C@H](O)[C@H](O)[C@H]3O)C(C)CC23OC(O)C(C3=O)C(O)/C=C/C2(C)C=C(C=O)C(C)CC23OC(O)C(C3=O)C1O (some centres unmarked) | soluble | – | > 100 | 200 | – | 2.5 |

Source: patent US5124150A
